Test results reported in ChEMBL document CHEMBL4393715, “Design, synthesis and biological evaluation of the thioether-containing lenalidomide analogs with anti-proliferative activities” (Eur J Med Chem, 2019).
Values belong to the compound of their own block, whether it stands above or below them.

Columns and labels:
MM1.S = experiment: Antiproliferative activity against human MM1S cells measured after 168 hrs by CellTiter96 Aqueous non-radioactive cell proliferation assay; type: functional, cell-based
[1] = Antiproliferative activity against human Mino cells measured after 72 hrs by CellTiter96 Aqueous non-radioactive cell proliferation assay; type: functional, cell-based
MV4-11 = experiment: Antiproliferative activity against human MV411 cells measured after 168 hrs by CellTiter96 Aqueous non-radioactive cell proliferation assay; type: functional, cell-based; details: MV4-11, 168 h
U-266 = experiment: Antiproliferative activity against human U266 cells measured after 72 hrs by CellTiter96 Aqueous non-radioactive cell proliferation assay; type: functional, cell-based; details: U-266, 72 h
Raji = experiment: Antiproliferative activity against human Raji cells measured after 168 hrs by CellTiter96 Aqueous non-radioactive cell proliferation assay; type: functional, cell-based
THP-1 = experiment: Antiproliferative activity against human THP1 cells measured after 168 hrs by CellTiter96 Aqueous non-radioactive cell proliferation assay; type: functional, cell-based; details: THP-1, 168 h
Z-138 = experiment: Antiproliferative activity against human Z138 cells measured after 72 hrs by CellTiter96 Aqueous non-radioactive cell proliferation assay; type: functional, cell-based; details: Z-138, 72 h
Kasumi 1 = experiment: Antiproliferative activity against human Kasumi-1 cells measured after 168 hrs by CellTiter96 Aqueous non-radioactive cell proliferation assay; type: functional, cell-based; details: Kasumi 1, 168 h
RPMI-8226 [2] = experiment: Antiproliferative activity against human RPMI8226 cells measured after 72 hrs by CellTiter96 Aqueous non-radioactive cell proliferation assay; type: functional, cell-based; details: RPMI-8226, 72 h
PBMC = experiment: Cytotoxicity against human PBMC cells by CellTiter96 Aqueous non-radioactive cell proliferation assay; type: cell-based
JeKo-1 = experiment: Antiproliferative activity against human JeKo1 cells measured after 72 hrs by CellTiter96 Aqueous non-radioactive cell proliferation assay; type: functional, cell-based; details: JeKo-1, 72 h
[3] = Clearance in BALB/c mouse at 5 mg/kg, iv and measured up to 24 hrs by LC-MS/MS analysis; type: ADME, organism-based; details: in vivo
[4] = Cmax in BALB/c mouse at 20 mg/kg, po and measured up to 24 hrs by LC-MS/MS analysis; type: ADME, organism-based; parameters: dose 20 mg/kg, route oral; details: in vivo
[5] = Volume of distribution at steady state in BALB/c mouse at 5 mg/kg, iv and measured up to 24 hrs by LC-MS/MS analysis; type: ADME, organism-based; details: in vivo, read-out: Vdss
[6] = Tmax in BALB/c mouse at 20 mg/kg, po and measured up to 24 hrs by LC-MS/MS analysis; type: ADME, organism-based; details: in vivo
[7] = AUC (infinity) in BALB/c mouse at 5 mg/kg, iv and measured up to 24 hrs by LC-MS/MS analysis; type: ADME, organism-based; parameters: dose 5 mg/kg, route intravenous, time infinity; details: in vivo
[8] = Terminal elimination half life in BALB/c mouse at 20 mg/kg, po and measured up to 24 hrs by LC-MS/MS analysis; type: ADME, organism-based; details: in vivo, read-out: LambdaZ (converted)
[9] = AUC (infinity) in BALB/c mouse at 20 mg/kg, po and measured up to 24 hrs by LC-MS/MS analysis; type: ADME, organism-based; parameters: dose 20 mg/kg, route oral, time infinity; details: in vivo
[10] = MRT (infinity) in BALB/c mouse at 5 mg/kg, iv and measured up to 24 hrs by LC-MS/MS analysis; type: ADME, organism-based; details: in vivo
[11] = Oral bioavailability in BALB/c mouse at 20 mg/kg and measured up to 24 hrs by LC-MS/MS analysis; type: ADME, organism-based; details: in vivo
[12] = Half-life in BALB/c mouse at 5 mg/kg, iv and measured up to 24 hrs by LC-MS/MS analysis; type: ADME, organism-based; details: in vivo
RPMI-8226 [13] = experiment: Antitumour activity against human RPMI8226 cells xenografted in CB-17 SCID mouse assessed as inhibition of tumour growth at 60 mg/kg/day, po measured twice a week for 21 days relative to control; type: functional; parameters: scale not given: the % may be the effect or the level left
RPMI-8226 [14] = experiment: Antitumour activity against human RPMI8226 cells xenografted in CB-17 SCID mouse assessed as tumour volume at 60 mg/kg/day, po measured after day 18 (reference value: 153 to 154 mm3); type: functional
[15] = Toxicity in CB-17 SCID mouse xenografted with human RPMI8226 cells assessed as mortality at 60 mg/kg/day, po and measured after day 18; type: organism-based; details: in vivo
[16] = Toxicity in CB-17 SCID mouse xenografted with human RPMI8226 cells assessed as body weight at 60 mg/kg/day, po and measured after day 18 (reference value: 20.1 to 20.4 g); type: organism-based; details: in vivo
RPMI-8226 [17] = experiment: Antitumour activity against human RPMI8226 cells xenografted in CB-17 SCID mouse assessed as relative tumour volume at 60 mg/kg/day, po measured twice a week for 21 days; type: functional

IC50 (MM1.S): 0.4 nM
IC50 (MV4-11): > 20000 nM
Structure (SMILES): Cc1cccc(CSc2cccc3c2CN(C2CCC(=O)NC2=O)C3=O)c1 (stereo unspecified)
IC50 [1]: 3.3 nM

Structure (SMILES): O=C1CCC(N2Cc3c(cccc3[S+]([O-])Cc3ccc(CN4CCOCC4)cc3)C2=O)C(=O)N1 (stereo unspecified)
IC50 [1]: 100 nM

Structure (SMILES): O=C1CCC(N2Cc3c(cccc3S(=O)(=O)Cc3ccc(CN4CCOCC4)cc3)C2=O)C(=O)N1 (stereo unspecified)
IC50 [1]: > 20000 nM

Structure (SMILES): CC1CN(C(=O)c2ccc(CSc3cccc4c3CN(C3CCC(=O)NC3=O)C4=O)cc2)CC(C)O1 (stereo unspecified)
IC50 [1]: 6.5 nM

IC50 (Raji): > 20000 nM
IC50 (THP-1): > 20000 nM
IC50 (MM1.S): 0.4 nM
IC50 (RPMI-8226 [2]): 5.4 nM
IC50 (MV4-11): > 20000 nM
Structure (SMILES): Cc1ccc(CSc2cccc3c2CN(C2CCC(=O)NC2=O)C3=O)cc1 (stereo unspecified)
IC50 (U-266): 5.6 nM
IC50 (Z-138): > 20000 nM
IC50 [1]: 2.9 nM
IC50 (Kasumi 1): > 20000 nM
IC50 (PBMC): > 20000 nM
IC50 (JeKo-1): > 20000 nM

Structure (SMILES): CN1CCN(C(=O)c2ccc(CSc3cccc4c3CN(C3CCC(=O)NC3=O)C4=O)cc2)CC1 (stereo unspecified)
IC50 [1]: 3.4 nM

IC50 (MM1.S): 2.1 nM
IC50 (MV4-11): > 20000 nM
Structure (SMILES): CSc1cccc2c1CN(C1CCC(=O)NC1=O)C2=O (stereo unspecified)
IC50 [1]: 930 nM

IC50 (MM1.S): 2.9 nM
IC50 (MV4-11): > 20000 nM
Structure (SMILES): N#Cc1ccccc1CSc1cccc2c1CN(C1CCC(=O)NC1=O)C2=O (stereo unspecified)
IC50 [1]: 30.5 nM

IC50 (Raji): > 20000 nM
IC50 (THP-1): > 20000 nM
IC50 (MM1.S): 0.9 nM
IC50 (RPMI-8226 [2]): 40 nM
IC50 (MV4-11): > 20000 nM
Structure (SMILES): O=C1CCC(N2Cc3c(SCc4ccc(F)cc4)cccc3C2=O)C(=O)N1 (stereo unspecified)
IC50 (U-266): 2.6 nM
IC50 (Z-138): > 20000 nM
IC50 [1]: 2.6 nM
IC50 (Kasumi 1): > 20000 nM
IC50 (PBMC): > 20000 nM
IC50 (JeKo-1): > 20000 nM

Structure (SMILES): CCNC(=O)c1ccc(CSc2cccc3c2CN(C2CCC(=O)NC2=O)C3=O)cc1 (stereo unspecified)
IC50 [1]: 4.2 nM

IC50 (MM1.S): 0.6 nM
IC50 (MV4-11): > 20000 nM
Structure (SMILES): O=C1CCC(N2Cc3c(SCc4ccccc4F)cccc3C2=O)C(=O)N1 (stereo unspecified)
IC50 [1]: 2.9 nM

clearance [3]: 197 mL/min/kg
Cmax [4]: 16.7 ng/mL
Vd [5]: 5.31 L/kg
Tmax [6]: 30 min
AUC(0-inf) [7]: 424 ng·h/mL
half-life [8]: 84.6 min
AUC(0-inf) [9]: 34.1 ng·h/mL
MRT inf [10]: 27 min
bioavailability [11]: 2.9%
half-life [12]: 42 min
Structure (SMILES): O=C1CCC(N2Cc3c(SCc4ccc(C(=O)N5CCCCC5)cc4)cccc3C2=O)C(=O)N1 (stereo unspecified)
IC50 [1]: 0.5 nM

IC50 (MM1.S): 1.8 nM
IC50 (MV4-11): > 20000 nM
Structure (SMILES): Cc1ccccc1CSc1cccc2c1CN(C1CCC(=O)NC1=O)C2=O (stereo unspecified)
IC50 [1]: 16.6 nM

IC50 (MM1.S): 1.1 nM
IC50 (MV4-11): > 20000 nM
Structure (SMILES): O=C1CCC(N2Cc3c(SCc4ccccc4)cccc3C2=O)C(=O)N1 (stereo unspecified)
IC50 [1]: 6.3 nM

Structure (SMILES): CNC(=O)c1ccc(CSc2cccc3c2CN(C2CCC(=O)NC2=O)C3=O)cc1 (stereo unspecified)
IC50 [1]: 28.3 nM

Structure (SMILES): O=C1CC[C@H](N2Cc3c(OCc4ccc(CN5CCOCC5)cc4)cccc3C2=O)C(=O)N1 [IBERDOMIDE]
Activity (RPMI-8226 [13]): 27.07%
Activity (RPMI-8226 [14]): 517 mm3
clearance [3]: 43.5 mL/min/kg
Activity [15]: Non-Toxic
Cmax [4]: 2060 ng/mL
IC50 (MM1.S): 13 nM
Vd [5]: 1.9 L/kg
Tmax [6]: 8.4 min
IC50 [1]: 112 nM
AUC(0-inf) [7]: 1940 ng·h/mL
half-life [8]: 54 min
Activity [16]: 22.1 g
AUC(0-inf) [9]: 1810 ng·h/mL
MRT inf [10]: 43.8 min
bioavailability [11]: 22.8%
half-life [12]: 58.2 min
IC50 (MV4-11): > 20000 nM
fold change (FC) (RPMI-8226 [17]): 3.42

IC50 (Raji): > 20000 nM
IC50 (THP-1): > 20000 nM
IC50 (MM1.S): 50 nM
IC50 (RPMI-8226 [2]): > 20000 nM
IC50 (MV4-11): > 20000 nM
Structure (SMILES): Nc1cccc2c1CN(C1CCC(=O)NC1=O)C2=O (stereo unspecified) [LENALIDOMIDE]
IC50 (U-266): > 20000 nM
IC50 (Z-138): > 20000 nM
IC50 [1]: > 20000 nM
IC50 (Kasumi 1): > 20000 nM
IC50 (PBMC): > 20000 nM
IC50 (JeKo-1): > 20000 nM
